Reference: patent EP0286781A2, “Pharmaceutical preparation for treating gastro-intestinal tract diseases” (HEUMANN PHARMA GMBH & CO, priority 1987, dated 1988)

What was measured:
[1] = system: immobilisationsstreßinduzierten gastromukosalen Schädigung der Ratte; test: Immobilisation-stress-induced gastromucosal damage in the rat (ulcer index); format: in vivo, Sprague-Dawley-Ratten; conditions: Dosis 50 mg/kg, intragastral in 1%iger Tylose
Text: Untersuchungen am Modell der immobilisationsstreßinduzierten gastromukosalen Schädigung der Ratte
(1984), "Scand. J. Gastroenterol.", 19, (Suppl. 101), 69).
Gestreßt wurden die Tiere unmittelbar nach Applikation. Nach Versuchsende wurden den Tieren die Mägen in Ethernarkose entnommen. Die Mägen wurden entlang der großen Kurvatur eröffnet und gespült. Ausmaß und Beschaffenheit der Läsionen wurden nach einer von Marazzi-Uberti und Turba (C. Med. exp., 4, 284 (1961)) angegebenen Einteilung visuell ausgezählt und als Ulcus-Index ausgedrückt.

[2] = hochdosiert, ca. 50 mg/kg; A. Robert u.a. (1984); cited from earlier work

CN=C(NC#N)NCCSCc1[nH]cnc1C [Cimetidin]
Ulcus-Index (MW ±) SD ([1]; rats fasted 16 h, 10 animals, control 1% Tylose 69,8 ± 10,7, significant vs control): 32,1 ± 6,6*)
% Hemmung ([1]; inhibition of Ulcus-Index vs 1% Tylose control): 54%
ulcus- bzw. cytoprotektive Wirkung [2]: ulcus- bzw. cytoprotektive Wirkung
